This note sets out measurements from article PMC10439952, “JT002, a small molecule inhibitor of the NLRP3 inflammasome for the treatment of autoinflammatory disorders” (Scientific Reports, 2023).

For assay [1], the target named is T1, AIM2 inflammasome (Mus musculus, UniProt Q91VJ1).
T1 construct: host or cells: mouse BMDMs, LPS + transfected poly(dA:dT)
T1 sequence (Q91VJ1 1-354): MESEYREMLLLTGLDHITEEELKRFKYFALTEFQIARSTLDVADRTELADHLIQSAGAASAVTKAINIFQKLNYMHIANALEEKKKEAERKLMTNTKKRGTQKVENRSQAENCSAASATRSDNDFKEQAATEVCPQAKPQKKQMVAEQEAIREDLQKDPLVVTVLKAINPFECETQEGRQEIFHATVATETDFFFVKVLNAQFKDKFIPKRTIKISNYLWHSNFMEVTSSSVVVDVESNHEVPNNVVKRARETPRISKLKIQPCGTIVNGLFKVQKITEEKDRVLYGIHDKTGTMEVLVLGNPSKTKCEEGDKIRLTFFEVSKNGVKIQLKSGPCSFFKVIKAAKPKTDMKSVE
Kind of assay: IL-1β production in mouse BMDMs after AIM2 activation (LPS + poly(dA:dT)). In kind it is cell-based. The settings on record: mBMDMs, concentrations up to 10 µM. The protocol:
(§1) Cell viability was determined by addition of an equal volume of CellTiter-Glo® 2.0 reagent (Promega) to the remaining cells/supernatant in each well. Intracellular Caspase-1 activity was measured using the Caspase-Glo® assay (Promega) according to the manufacturer’s instructions. The biochemical capsase-1 assay was conducted at Reaction Biology Corporation (Malvern, USA). Human IL-1β, IL-1α, and TNFα and mouse IL-1β were measured in cell culture supernatants using homogeneous time resolved fluorescence assay kits (HTRF, Cisbio, Codolet, France). Human IL-18 was measured in cell culture supernatants using an ELISA kit (R&D Systems, Minneapolis, MN, USA). Plasma IL-1β concentrations were determined by Quantikine® ELISA (R&D Systems, Minneapolis, MN).
(§2) 4H). MS: m/z 433.1 (M+H+). […]
flagellin, prepared in Opt iMEM and combined with Lipofectamine 2000. […] After priming Nlrp3 -/- mBMDMs with 100 ng/mL of LPS for 3- 5 h, cells were exposed to 100 ng/mL L18- MDP and incubated overnight.At the end of the incubation period of the assays above, plates were briefly centri fuged and hal f of the cell culture supern atant remo ved and either analysed i mmediately or stored at - 80°C for subs equent cytokine […]

Assay [2] concerns the target NLRP3 inflammasome (Mus musculus, UniProt Q8R4B8). As to the kind of experiment: Inhibition of IL-1β production in mouse PBMCs stimulated by LPS + ATP. In kind it is cell-based. Further details: host or cells: mouse PBMCs; mouse bone-marrow derived macrophages; mouse whole blood (C57BL/6 in the ex vivo study). The settings on record: Mouse PBMC, read-out: Geo Av IC50, IL-1β. Here is the method: Inflammasome activation and whole blood assays were essentially carried out as described earlier. Details can be found in the supplementary information section accompanying this publication. A protocol for blood draws from healthy volunteers and use of the blood in preclinical assays was approved by Western Institutional Review Board, Inc (Puyallup, WA, USA). Informed consent was obtained from each donor prior to the first blood draw.
as §1, §2

Structures are written as SMILES.

Sequence of NLRP3 inflammasome (Q8R4B8 whole entry): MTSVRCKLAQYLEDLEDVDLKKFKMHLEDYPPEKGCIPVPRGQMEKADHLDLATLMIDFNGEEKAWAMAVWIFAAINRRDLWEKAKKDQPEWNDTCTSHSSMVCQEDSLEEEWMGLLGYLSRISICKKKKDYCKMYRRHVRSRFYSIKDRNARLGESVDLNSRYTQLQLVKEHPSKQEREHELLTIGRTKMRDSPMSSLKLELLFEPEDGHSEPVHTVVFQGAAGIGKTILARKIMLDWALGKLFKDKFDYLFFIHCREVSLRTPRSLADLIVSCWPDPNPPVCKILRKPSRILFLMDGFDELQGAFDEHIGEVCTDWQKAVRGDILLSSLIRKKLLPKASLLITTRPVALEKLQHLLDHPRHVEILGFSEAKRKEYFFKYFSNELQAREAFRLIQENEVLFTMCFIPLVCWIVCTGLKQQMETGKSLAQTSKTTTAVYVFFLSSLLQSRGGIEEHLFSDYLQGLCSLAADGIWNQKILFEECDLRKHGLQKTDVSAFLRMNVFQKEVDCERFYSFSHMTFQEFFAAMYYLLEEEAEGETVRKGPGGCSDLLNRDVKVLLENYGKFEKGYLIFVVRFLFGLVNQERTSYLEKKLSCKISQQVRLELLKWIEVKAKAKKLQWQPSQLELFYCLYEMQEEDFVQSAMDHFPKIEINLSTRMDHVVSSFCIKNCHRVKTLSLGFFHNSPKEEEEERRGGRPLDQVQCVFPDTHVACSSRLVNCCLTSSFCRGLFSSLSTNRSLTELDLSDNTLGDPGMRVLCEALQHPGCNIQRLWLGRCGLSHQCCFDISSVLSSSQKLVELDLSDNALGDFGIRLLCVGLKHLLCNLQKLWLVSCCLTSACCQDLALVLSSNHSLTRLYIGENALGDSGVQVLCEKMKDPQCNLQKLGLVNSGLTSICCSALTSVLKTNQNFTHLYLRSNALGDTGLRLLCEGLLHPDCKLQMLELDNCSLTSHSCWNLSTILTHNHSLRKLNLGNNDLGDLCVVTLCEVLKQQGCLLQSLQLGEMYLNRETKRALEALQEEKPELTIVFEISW

As for `CO[C@@H]1COc2c(S(=O)(=O)NC(=O)Nc3c4c(cc5c3CCC5)CCC4)cnn2C1` [JT002], in assay [1], the “inhibition of IL-1β production after AIM2 activation” value is reported as “no inhibition of IL-1β production”. Besides, the IC50 in assay [2] came to 7 nM.
